Assay results published in ChEMBL document CHEMBL6071187, “Design, Synthesis, and Biological Evaluation of Selective TBL1X Degraders” (ACS Med Chem Lett, 2024).
pIC50: −log10 of the molar value.

Key:
[1] = target: T1, Protein cereblon/F-box-like/WD repeat-containing protein TBL1X (Homo sapiens) (UniProt Q96SW2+O60907); assay: PROTAC activity at CRBN/TBL1X in human Ri-1 cells assessed as […] TBL1X level at 5 uM incubated for 6 hrs by Western blotting analysis (reference value: 1); assay type: cell-based
Granta-519 = assay: Cytotoxicity against human Granta-519 cells assessed as reduction in cell viability incubated for 72 hrs by MTS assay; assay type: functional, cell-based; conditions: Granta-519, 72 h
[2] = target: T1, Protein cereblon/F-box-like/WD repeat-containing protein TBL1X (Homo sapiens); assay: PROTAC activity at CRBN/TBL1X in human Ri-1 cells assessed as […] TBL1X level at 0.04 uM incubated for 6 hrs by Western blotting analysis (reference value: 1); assay type: cell-based
[3] = target: T1, Protein cereblon/F-box-like/WD repeat-containing protein TBL1X (Homo sapiens); assay: PROTAC activity at CRBN/TBL1X in human Ri-1 cells assessed as TBL1X level relative to control at 0.008 uM incubated for 6 hrs by Western blotting analysis (reference value: 1); assay type: cell-based
[4] = target: T1, Protein cereblon/F-box-like/WD repeat-containing protein TBL1X (Homo sapiens); assay: PROTAC activity at CRBN/TBL1X in human Ri-1 cells assessed as […] TBL1X level at 1 uM incubated for 6 hrs by Western blotting analysis (reference value: 1); assay type: cell-based
[5] = Cytotoxicity against human Ri-1 cells assessed as reduction in cell viability incubated for 72 hrs by MTS assay; assay type: functional, cell-based; conditions: Ri-1, 72 h
Pfeiffer = assay: Cytotoxicity against human Pfeiffer cells assessed as reduction in cell viability incubated for 72 hrs by MTS assay; assay type: functional, cell-based
[6] = target: T1, Protein cereblon/F-box-like/WD repeat-containing protein TBL1X (Homo sapiens); assay: PROTAC activity at CRBN/TBL1X in human Ri-1 cells assessed as […] TBL1X level at 0.2 uM incubated for 6 hrs by Western blotting analysis (reference value: 1); assay type: cell-based
[7] = target: T1, Protein cereblon/F-box-like/WD repeat-containing protein TBL1X (Homo sapiens); assay: PROTAC activity at CRBN/TBL1X in human Ri-1 cells assessed as […] TBL1X level at 0.2 uM incubated for 6 hrs in presence of tega-vivint by Western blotting analysis (reference value: 1); assay type: cell-based
[8] = target: T1, Protein cereblon/F-box-like/WD repeat-containing protein TBL1X (Homo sapiens); assay: PROTAC activity at CRBN/TBL1X in human Ri-1 cells assessed as […] TBL1X level at 0.2 uM incubated for 6 hrs in presence of pomalidomide by Western blotting analysis (reference value: 1); assay type: cell-based
[9] = target: T1, Protein cereblon/F-box-like/WD repeat-containing protein TBL1X (Homo sapiens); assay: PROTAC activity at CRBN/TBL1X in human Ri-1 cells assessed as decrease in TBL1X level incubated for 6 hrs by Western blotting analysis; assay type: cell-based; conditions: dose 0.008-5 µM
[10] = target: T1, Protein cereblon/F-box-like/WD repeat-containing protein TBL1X (Homo sapiens); assay: PROTAC activity at CRBN/TBL1X in human Ri-1 cells assessed as […] TBL1X level at 0.2 uM incubated for 6 hrs in presence of MG-132 by Western blotting analysis (reference value: 1); assay type: cell-based

T1 sequence (O60907 whole entry, looked up): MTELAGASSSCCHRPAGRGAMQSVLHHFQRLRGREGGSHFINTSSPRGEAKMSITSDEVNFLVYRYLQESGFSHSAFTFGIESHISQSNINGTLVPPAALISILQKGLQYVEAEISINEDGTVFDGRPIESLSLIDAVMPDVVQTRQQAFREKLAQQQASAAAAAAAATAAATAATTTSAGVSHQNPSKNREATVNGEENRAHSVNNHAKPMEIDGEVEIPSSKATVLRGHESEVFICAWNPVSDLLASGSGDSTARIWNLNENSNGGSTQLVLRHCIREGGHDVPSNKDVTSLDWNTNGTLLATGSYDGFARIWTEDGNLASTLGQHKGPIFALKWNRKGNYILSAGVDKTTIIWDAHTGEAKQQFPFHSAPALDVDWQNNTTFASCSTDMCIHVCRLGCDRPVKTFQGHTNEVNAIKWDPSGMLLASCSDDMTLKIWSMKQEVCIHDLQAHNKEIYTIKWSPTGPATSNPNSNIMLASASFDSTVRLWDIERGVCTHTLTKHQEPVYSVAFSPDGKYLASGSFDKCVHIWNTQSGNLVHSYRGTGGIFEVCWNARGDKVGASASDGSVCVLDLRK
T1 sequence (Q96SW2 whole entry, looked up): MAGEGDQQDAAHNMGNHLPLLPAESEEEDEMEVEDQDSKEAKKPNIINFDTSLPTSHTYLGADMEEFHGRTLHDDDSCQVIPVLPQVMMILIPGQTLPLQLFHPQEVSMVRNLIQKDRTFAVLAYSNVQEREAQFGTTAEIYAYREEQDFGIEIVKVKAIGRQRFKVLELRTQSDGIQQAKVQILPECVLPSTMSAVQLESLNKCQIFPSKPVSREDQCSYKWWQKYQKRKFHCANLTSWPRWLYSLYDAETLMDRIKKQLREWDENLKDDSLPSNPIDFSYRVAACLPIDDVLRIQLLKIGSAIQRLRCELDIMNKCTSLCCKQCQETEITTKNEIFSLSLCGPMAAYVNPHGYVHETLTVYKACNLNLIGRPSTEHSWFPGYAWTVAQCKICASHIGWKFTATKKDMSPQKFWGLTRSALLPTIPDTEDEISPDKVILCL

fold change (FC) [1]	fold change (FC) [2]	fold change (FC) [3]	fold change (FC) [4]	fold change (FC) [6]	fold change (FC) [7]	fold change (FC) [8]	Activity [9]	fold change (FC) [10]	Structure (SMILES)	pIC50 (Granta-519)	pIC50 [5]	pIC50 (Pfeiffer)
1.08	1.04	0.98	0.92	0.99					CC1CC(C)CN(S(=O)(=O)c2ccc3c(c2)/C(=N/O)c2cc(S(=O)(=O)N4CCN(C(=O)CCCCCCCCCCNc5cccc6c5C(=O)N(C5CCC(=O)NC5=O)C6=O)CC4)ccc2/C3=N\O)C1 (configuration not stated)	5.94	5.93	5.60
0.44	0.74	0.8	0.74	0.61			Dose-Dependent Effect		CC1CC(C)CN(S(=O)(=O)c2ccc3c(c2)C(=NO)c2cc(S(=O)(=O)N4CC(C)CC(C)C4)ccc2C3=NOCCCNC(=O)CCCCCCNc2cccc3c2C(=O)N(C2CCC(=O)NC2=O)C3=O)C1 (configuration not stated)	6.28	6.03	6.45
1.03	0.35	0.37	0.64	0.63					CC1CC(C)CN(S(=O)(=O)c2ccc3c(c2)C(=NO)c2cc(S(=O)(=O)N4CC(C)CC(C)C4)ccc2C3=NOCCCNC(=O)CCOCCOCCNc2cccc3c2C(=O)N(C2CCC(=O)NC2=O)C3=O)C1 (configuration not stated)	< 4.70	< 4.70	5.73
1.51	1.03	0.91	1.36	1.16					CC1CC(C)CN(S(=O)(=O)c2ccc3c(c2)/C(=N/O)c2cc(S(=O)(=O)N4CCN(C(=O)CCCCCCNc5cccc6c5C(=O)N(C5CCC(=O)NC5=O)C6=O)CC4)ccc2/C3=N\O)C1 (configuration not stated)	6.36	6.22	6.46
0.97	1.02	0.9	0.79	0.92					CC1CC(C)CN(S(=O)(=O)c2ccc3c(c2)/C(=N\O)c2cc(S(=O)(=O)N4CCN(C(=O)CCOCCOCCOCCNc5cccc6c5C(=O)N(C5CCC(=O)NC5=O)C6=O)CC4)ccc2/C3=N\O)C1 (configuration not stated)	< 4.70	< 4.70	< 4.70

Second part, the compound before the results:

Structure (SMILES)	fold change (FC) [1]	fold change (FC) [2]	fold change (FC) [3]	fold change (FC) [4]	fold change (FC) [6]	fold change (FC) [7]	fold change (FC) [8]	Activity [9]	fold change (FC) [10]	pIC50 (Granta-519)	pIC50 [5]	pIC50 (Pfeiffer)
CC1CC(C)CN(S(=O)(=O)c2ccc3c(c2)/C(=N/O)c2cc(S(=O)(=O)N4CCN(C(=O)CCOCCNc5cccc6c5C(=O)N(C5CCC(=O)NC5=O)C6=O)CC4)ccc2/C3=N\O)C1 (configuration not stated)	0.79	1.11	0.91	1.15	1.59					< 4.70	< 4.70	< 4.70
CC1CC(C)CN(S(=O)(=O)c2ccc3c(c2)C(=NO)c2cc(S(=O)(=O)N4CC(C)CC(C)C4)ccc2C3=NOCCCNC(=O)CCCCNc2cccc3c2C(=O)N(C2CCC(=O)NC2=O)C3=O)C1 (configuration not stated)	1.46	0.27	0.4	0.61	0.53	0.87	0.82	Dose-Dependent Effect	0.92	6.28	6.10	6.40
CC1CC(C)CN(S(=O)(=O)c2ccc3c(c2)C(=NO)c2cc(S(=O)(=O)N4CC(C)CC(C)C4)ccc2C3=NOCCCNC(=O)CCNc2cccc3c2C(=O)N(C2CCC(=O)NC2=O)C3=O)C1 (configuration not stated)	0.54	0.56	0.97	0.5	0.41			Dose-Dependent Effect		6.49	6.19	6.72
CC1CC(C)CN(S(=O)(=O)c2ccc3c(c2)/C(=N/O)c2cc(S(=O)(=O)N4CCN(C(=O)CCCCNc5cccc6c5C(=O)N(C5CCC(=O)NC5=O)C6=O)CC4)ccc2/C3=N\O)C1 (configuration not stated)	0.6	0.94	0.9	0.91	1.02					6.30	6.25	6.19
C[C@@H]1C[C@H](C)CN(S(=O)(=O)c2ccc3c(c2)C(=NO)c2cc(S(=O)(=O)N4C[C@H](C)C[C@H](C)C4)ccc2C3=NO)C1										7.03	7.07	6.76
CC1CC(C)CN(S(=O)(=O)c2ccc3c(c2)C(=NO)c2cc(S(=O)(=O)N4CC(C)CC(C)C4)ccc2C3=NOCCCNC(=O)CCOCCNc2cccc3c2C(=O)N(C2CCC(=O)NC2=O)C3=O)C1 (configuration not stated)	0.48	0.47	0.4	0.43	0.51					5.98	5.87	6.26
CC1CC(C)CN(S(=O)(=O)c2ccc3c(c2)C(=NO)c2cc(S(=O)(=O)N4CC(C)CC(C)C4)ccc2C3=NOCCCNC(=O)CCCCCCCCCCNc2cccc3c2C(=O)N(C2CCC(=O)NC2=O)C3=O)C1 (configuration not stated)	0.43	0.43	0.64	0.18	0.44			Dose-Dependent Effect		< 4.70	< 4.70	< 4.70
CC1CC(C)CN(S(=O)(=O)c2ccc3c(c2)/C(=N/O)c2cc(S(=O)(=O)N4CCN(C(=O)CCNc5cccc6c5C(=O)N(C5CCC(=O)NC5=O)C6=O)CC4)ccc2/C3=N\O)C1 (configuration not stated)	1.34	1.3	1	1.23	1.28					6.40	6.10	6.25
CC1CC(C)CN(S(=O)(=O)c2ccc3c(c2)/C(=N\O)c2cc(S(=O)(=O)N4CCN(C(=O)CCOCCOCCNc5cccc6c5C(=O)N(C5CCC(=O)NC5=O)C6=O)CC4)ccc2/C3=N\O)C1 (configuration not stated)	0.97	0.99	1.07	1.06	0.94					< 4.70	< 4.70	< 4.70
CC1CC(C)CN(S(=O)(=O)c2ccc3c(c2)C(=NO)c2cc(S(=O)(=O)N4CC(C)CC(C)C4)ccc2C3=NOCCCNC(=O)CCOCCOCCOCCNc2cccc3c2C(=O)N(C2CCC(=O)NC2=O)C3=O)C1 (configuration not stated)	0.58	0.49	0.6	0.59	0.46					< 4.70	< 4.70	< 4.70
